According to patent US11013745B2, “Triazolopyrimidine, triazolopyridine compounds, and the composition thereof for treating PRC2-mediated diseases” (SHANGHAI INSTITUTE OF MATERIA MEDICA, CHINESE ACADEMY OF …, priority 2017, dated 2021):
Like-named read-outs stand apart in the source and are kept apart here. Each block holds one compound with its values, some of them ahead of it.

Key:
PRC2 enzyme = PRC2 enzyme (Homo sapiens (Human), UniProt O75530); assay: PRC2 enzyme activity, TR-FRET method; format: biochemical
Method: The TR-FRET method was used to measure the PRC2 enzyme activity. First, the enzyme was mixed with compounds at different concentrations and incubated for 30 min at room temperature. The biotin-labeled histone H3 peptide substrate and the cofactor S-adenosylmethionine (SAM) were added to initiate the enzymatic reaction. After reaction was performed at room temperature for 4 hour, Acceptor and Donor were added and incubated for half an hour. The multifunctional microplate reader EnVision (Perkin Elmer Inc.) was used to detect the fluorescence signal. Data were analyzed using GraphPad Prism 5.0 software, and IC50 values were obtained.

Pfeiffer cells [1] = assay: Pfeiffer cell growth inhibition in a long term (11 days), CellTiter-Glo; format: cell-based, Human; conditions: Homo sapiens, 264 h, 11 days, read-out: Experiment on Pfeiffer cell growth inhibition in a long term (11 days IC50)
Method: Pfeiffer cells in exponential growth phase were seeded in a 24-well plate with a cell density of 1*10E5 cells/mL. Cells were treated on the same day with the compounds at different concentrations. At day 4 and day 7 of compound treatment, fresh media and compounds were changed. After treated with the compounds for 11 days, cell viability was measured using CellTiter-Glo reagent (Promega Corporation). The data was analyzed using GraphPad Prism 5.0 software and GI50 values were obtained.

[2] = Liver microsomal stability (human); format: in vitro ADME
Method: (§1) 1. JANUS and temperature control device was turned on. After being initialized, the pipes were flushed until there was no air bubble in the pipes.
(§2) 2. Preparation of buffers used for the experiment
(§3) Preparation of Tris pH 7.4 buffer (0.1 M): 12.12 g of Tris was dissolved in 1000 mL of H2O, the resulting solution was adjusted to pH 7.4 with 2N HCl, aliquoted at 50 mL per tube, and stored at −20° C.
(§4) Preparation of H2O/0.1% BSA buffer: 200 μL of 25% BSA was added to 50 mL of H2O.
(§5) Preparation of VIVID stock solution: 1 mg of VIVID was dissolved in 1 mL of acetonitrile, aliquoted at 50 μL per tube, and stored at −20° C.
(§6) Preparation of MgCl2 solution (100 mM): 1.016 g of MgCl2 was dissolved in 50 mL Tris pH 7.4 buffer, and aliquoted at 1 mL per tube, and stored at −20° C.
(§7) Preparation of NADPH solution (10 mM): 355 mg of NADPH was dissolved in 42.6 mL of Tris pH 7.4 buffer, aliquoted at 1.8 mL per tube, and stored at −20° C.
(§8) Preparation of Blank control: 7.937 mL of Tris, 163 μL of RLM, 450 μL of MgCl2 solution, 450 μL of NADPH solution and 9 mL of methanol were mixed uniformly, aliquoted at 1 mL per tube, and stored at −20° C.
(§9) 3. Preparation of Compound Working Solution
(§10) Dilution step 1:10 μL of compound stock solution was added to 90 μL of DMSO=1 mM stock solution.
(§11) Dilution step 2: 2 μL of 1 mM stock solution was added to 1 mL of H2O/0.1%6 BSA buffer=[…] working solution.
(§12) Dilution step 3: 245 μL of the working solution was added to a 96-well compound plate and added with 5 μL of VIVID stock solution.
(§13) The 96-well compound plate was shaken on a shaker for 5 min.
(§14) 4. The STM in the JANUS in the computer was open to run the EXCEL file, and the JANUS program was operated and run by following the instructions in the EXCEL file.
(§15) 5. After the JANUS program was finished, acetonitrile/water 50:50 (V/V) was added to column 20 of the 384-well black plate, and blank control was added to column 21 of the 384-well black plate.
(§16) 6. the plate (420 nm-465 nm) was read on a microplate reader to determine the VIVID fluorescence intensity.
(§17) 7. After the plate was sealed, shaken and centrifuged, the sample plate was subjected to the LC/MS instrument for sample analysis.
(§18) A profile of the logarithmic value of the remaining rate of the drug in the incubation system versus the incubation time was plotted, and the slope k was obtained by linear regression. The intrinsic clearance rate in vivo (Clint, mL/min/g) value, the clearance rate in vivo (Cl, mL)/min), liver clearance (Clhep, mL/min) and metabolic bioavailability (% MF) were predicted according to the following equations: […]

[3] = Liver microsomal stability (rat); format: in vitro ADME
Method: as §1, §2, §3, §4, §5, §6, §7, §8, §9, §10, §11, §12, §13, §14, §15, §16, §17, §18

[4] = Liver microsomal stability (mouse); format: in vitro ADME
Pfeiffer cells [5] = assay: Growth inhibition of Pfeiffer cells in a long term (14 days), CellTiter-Glo; format: cell-based, Human; conditions: Homo sapiens, 336 h, 14 days, read-out: Pfeiffer (14 days) IC50
Method: In a CO2 cell incubator (37° C., 5% CO2), Human diffuse large B-cell lymphoma (DLBCL) cell line, pfeiffer (obtained from ATCC, CRL-2632) were incubated with RPMI 1640 medium (Gibco, purchased from Life Technologies, 22400-089) containing 10% fetal bovine serum (Gibco, purchased from Life Technologies, 10099-141) and 1% antibiotics (penicillin and streptomycin, purchased from Life Technologies, 10378016). […] After seeding the cells, they were placed in a CO2 incubator and allowed to stand for 1 hour. In a 24-well plate containing cells, 2 μL of three-fold gradient of the compounds at 9 different concentrations or DMSO were added to each well, such that the final concentration of the compounds was 0.003-20 μM or 0.3-2000 nM, and the final concentration of DMSO was 0.2%. At day 4, day 7, and day 11 of compound treatment, the fresh medium and compounds were changed, and the cell density of the DMSO control well was diluted to 2*10E5 cells/mL. The cell dilution ratio for other compound wells was the same as that of the DMSO control well. Cell viability was determined by using CellTiter-Glo reagent (purchased from Promega Inc., G7572): cells treated with the compounds for 14 days were transferred to a white 384-well plate (OptiPlate-384, purchased from PerkinElmer, 6007299) at 40 μL/well, an equal volume of CellTiter-Glo reagent was further added. After incubating at room temperature for 10 min, the cold luminescence signal was detected with a multifunctional microplate reader EnVision (PerkinElmer) at a wavelength of 400 to 700 nm. Data were analyzed using GraphPad Prism 5.0 software, and IC50 values were obtained.

Karpas-422 cells = assay: Growth inhibition of Karpas-422 cells in a long term (11 days), CellTiter-Glo; format: cell-based, Human; conditions: Homo sapiens, 264 h; Karpas-422, 11 days; read-out: Karpas-422 (11 days) IC50
[6] = human, liver microsomes, pH 7.4, human liver microsomes, read-out: Half life T-half
[7] = human, liver microsomes, pH 7.4, human liver microsomes, read-out: Metabolic bioavailability MF %
[8] = rat, liver microsomes, pH 7.4, rat liver microsomes, read-out: Half life T-half
[9] = mouse, liver microsomes, pH 7.4, mouse liver microsomes, read-out: Half life T-half

PRC2 enzyme, sequence (O75530 whole entry): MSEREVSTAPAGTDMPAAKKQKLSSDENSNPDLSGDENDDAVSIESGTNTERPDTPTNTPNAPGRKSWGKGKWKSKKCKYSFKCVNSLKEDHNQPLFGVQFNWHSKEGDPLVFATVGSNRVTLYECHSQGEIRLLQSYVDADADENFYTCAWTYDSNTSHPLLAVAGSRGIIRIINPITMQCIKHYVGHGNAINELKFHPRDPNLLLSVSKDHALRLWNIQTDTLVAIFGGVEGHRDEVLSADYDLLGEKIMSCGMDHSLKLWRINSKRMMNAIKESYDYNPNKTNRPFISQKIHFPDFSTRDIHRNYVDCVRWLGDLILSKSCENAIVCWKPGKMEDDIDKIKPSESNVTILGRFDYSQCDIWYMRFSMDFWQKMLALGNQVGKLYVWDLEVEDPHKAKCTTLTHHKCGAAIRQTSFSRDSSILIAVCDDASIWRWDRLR
PRC2 enzyme, sequence (Q15910 whole entry partner): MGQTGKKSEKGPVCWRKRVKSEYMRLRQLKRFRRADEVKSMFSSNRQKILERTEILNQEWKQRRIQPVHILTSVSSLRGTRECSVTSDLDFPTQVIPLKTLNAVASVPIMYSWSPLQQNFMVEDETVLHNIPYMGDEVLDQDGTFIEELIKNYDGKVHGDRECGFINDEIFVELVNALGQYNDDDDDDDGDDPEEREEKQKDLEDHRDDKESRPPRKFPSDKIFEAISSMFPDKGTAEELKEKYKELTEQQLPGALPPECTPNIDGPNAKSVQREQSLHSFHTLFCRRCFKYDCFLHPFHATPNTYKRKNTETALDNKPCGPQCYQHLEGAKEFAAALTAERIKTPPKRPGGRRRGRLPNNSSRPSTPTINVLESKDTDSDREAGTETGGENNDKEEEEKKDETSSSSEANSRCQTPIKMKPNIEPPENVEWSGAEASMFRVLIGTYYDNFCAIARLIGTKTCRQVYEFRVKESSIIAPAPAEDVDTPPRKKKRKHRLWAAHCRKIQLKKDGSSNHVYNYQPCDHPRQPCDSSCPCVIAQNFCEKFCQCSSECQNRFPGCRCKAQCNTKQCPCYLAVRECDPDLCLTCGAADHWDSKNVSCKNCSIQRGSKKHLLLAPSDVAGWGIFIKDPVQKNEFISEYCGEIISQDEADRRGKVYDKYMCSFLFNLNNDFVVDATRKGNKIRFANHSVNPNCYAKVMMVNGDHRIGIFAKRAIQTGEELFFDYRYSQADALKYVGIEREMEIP
PRC2 enzyme, sequence (Q15022 whole entry partner): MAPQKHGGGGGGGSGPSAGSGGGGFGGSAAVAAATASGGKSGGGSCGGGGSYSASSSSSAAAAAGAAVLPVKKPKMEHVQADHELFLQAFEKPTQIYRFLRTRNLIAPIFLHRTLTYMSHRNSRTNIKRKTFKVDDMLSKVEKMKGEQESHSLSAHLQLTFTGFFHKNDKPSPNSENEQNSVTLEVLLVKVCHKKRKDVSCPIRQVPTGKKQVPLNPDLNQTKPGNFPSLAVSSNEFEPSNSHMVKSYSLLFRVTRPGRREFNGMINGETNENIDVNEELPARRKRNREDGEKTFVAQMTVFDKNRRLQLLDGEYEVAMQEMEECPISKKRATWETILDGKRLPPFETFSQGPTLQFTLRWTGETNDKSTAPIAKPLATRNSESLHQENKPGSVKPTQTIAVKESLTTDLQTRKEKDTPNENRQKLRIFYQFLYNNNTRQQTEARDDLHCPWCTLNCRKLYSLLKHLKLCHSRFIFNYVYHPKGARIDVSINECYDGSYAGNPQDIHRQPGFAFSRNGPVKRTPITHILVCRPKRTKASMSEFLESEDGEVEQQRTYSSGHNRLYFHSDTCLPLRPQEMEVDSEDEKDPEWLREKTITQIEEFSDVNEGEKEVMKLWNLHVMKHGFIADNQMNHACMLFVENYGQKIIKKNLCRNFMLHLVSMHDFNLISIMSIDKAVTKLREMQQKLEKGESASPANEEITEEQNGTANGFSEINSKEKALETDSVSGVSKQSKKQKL

Structure (SMILES): O=C(C1CCOCC1)N1CC=C(c2cnc(NCc3c(F)ccc4c3CCO4)n3cnnc23)CC1 [E-Y43]
IC50 (PRC2 enzyme): 8.5 nM | IC50 (Pfeiffer cells [1]): 3.3 nM | Clearance rate in vivo Clint In Vivo Extpl ([2]; human liver microsomes): 1464 mL/min | Intrinsic clearance rate in vivo Clint In Vitro ([2]; human liver microsomes): 19.1 mL/min/gprot | Liver clearance rate Clint Hep In Vivo Extpl ([2]; human liver microsomes): 741 mL/min | half-life [2, 6]: 1.83 h | bioavailability [2, 7]: 50.6% | Clearance rate in vivo Clint In Vivo Extpl ([3]; rat liver microsomes): 44.8 mL/min | Intrinsic clearance rate in vivo Clint In Vitro ([3]; rat liver microsomes): 99.6 mL/min/gprot | Liver clearance rate Clint Hep In Vivo Extpl ([3]; rat liver microsomes): 13.8 mL/min | Metabolic bioavailability MF % ([3]; rat liver microsomes): 30.9% | half-life [3, 8]: 0.352 h | Clearance rate in vivo Clint In Vivo Extpl ([4]; mouse liver microsomes): 10.9 mL/min | Intrinsic clearance rate in vivo Clint In Vitro ([4]; mouse liver microsomes): 161 mL/min/gprot | Liver clearance rate Clint Hep In Vivo Extpl ([4]; mouse liver microsomes): 2.35 mL/min | Metabolic bioavailability MF % ([4]; mouse liver microsomes): 21.6% | half-life [4, 9]: 0.217 h

Structure (SMILES): Cc1cc(C(=O)N2CC=C(c3cnc(NCc4c(F)ccc5c4CCO5)n4cnnc34)CC2)n(C)n1 [E-Y42]
IC50 (PRC2 enzyme): 4.8 nM | IC50 (Pfeiffer cells [1]): 3.6 nM | IC50 (Pfeiffer cells [5]): 1.5 nM | IC50 (Karpas-422 cells): 10 nM

Structure (SMILES): CN1CC=C(c2cnc(NCc3c(F)ccc4c3CCO4)n3cnnc23)CC1 [SL-E23]
IC50 (PRC2 enzyme): 4.7 nM | IC50 (Pfeiffer cells [1]): 7.7 nM | IC50 (Pfeiffer cells [5]): 2 nM | IC50 (Karpas-422 cells): 2.8 nM | Clearance rate in vivo Clint In Vivo Extpl ([2]; human, microsomes): 807 mL/min | Intrinsic clearance rate in vivo Clint In Vitro ([2]; human, microsomes): 10.5 mL/min/gprot | Liver clearance rate Clint Hep In Vivo Extpl ([2]; human, microsomes): 525 mL/min | half-life ([2]; human, microsomes, pH 7.4, Half life T-half): 3.32 h | bioavailability ([2]; human, pH 7.4, Metabolic bioavailability MF %): 65% | Clearance rate in vivo Clint In Vivo Extpl ([3]; rat, microsomes): 15.8 mL/min | Intrinsic clearance rate in vivo Clint In Vitro ([3]; rat, microsomes): 35.0 mL/min/gprot | Liver clearance rate Clint Hep In Vivo Extpl ([3]; rat, microsomes): 8.81 mL/min | half-life ([3]; rat, microsomes, pH 7.4, Half life T-half): 1 h | Metabolic bioavailability MF % ([3]; rat, pH 7.4): 55.9% | Clearance rate in vivo Clint In Vivo Extpl ([4]; mouse, microsomes): 3.67 mL/min | Intrinsic clearance rate in vivo Clint In Vitro ([4]; mouse, microsomes): 54.4 mL/min/gprot | Liver clearance rate Clint Hep In Vivo Extpl ([4]; mouse, microsomes): 1.65 mL/min | half-life ([4]; mouse, microsomes, pH 7.4, Half life T-half): 0.643 h | Metabolic bioavailability MF % ([4]; mouse, pH 7.4): 45.0%

Structure (SMILES): CC(=O)N1CCC(c2cnc(NCc3c(F)ccc4c3CCO4)n3cnnc23)CC1 [E-Y50]
IC50 (PRC2 enzyme): 5.3 nM | IC50 (Pfeiffer cells [1]): 3.8 nM | Clearance rate in vivo Clint In Vivo Extpl ([2]; human liver microsomes): 174 mL/min | Intrinsic clearance rate in vivo Clint In Vitro ([2]; human liver microsomes): 2.28 mL/min/gprot | Liver clearance rate Clint Hep In Vivo Extpl ([2]; human liver microsomes): 156 mL/min | half-life [2, 6]: 15.4 h | bioavailability [2, 7]: 89.6% | Clearance rate in vivo Clint In Vivo Extpl ([3]; rat liver microsomes): 10.9 mL/min | Intrinsic clearance rate in vivo Clint In Vitro ([3]; rat liver microsomes): 24.2 mL/min/gprot | Liver clearance rate Clint Hep In Vivo Extpl ([3]; rat liver microsomes): 7.05 mL/min | Metabolic bioavailability MF % ([3]; rat liver microsomes): 64.8% | half-life [3, 8]: 1.45 h | Clearance rate in vivo Clint In Vivo Extpl ([4]; mouse liver microsomes): 0.921 mL/min | Intrinsic clearance rate in vivo Clint In Vitro ([4]; mouse liver microsomes): 13.6 mL/min/gprot | Liver clearance rate Clint Hep In Vivo Extpl ([4]; mouse liver microsomes): 0.705 mL/min | Metabolic bioavailability MF % ([4]; mouse liver microsomes): 76.5% | half-life [4, 9]: 2.57 h

Structure (SMILES): O=C(CN1CCOCC1)N1CC=C(c2cnc(NCc3c(F)ccc4c3CCO4)n3cnnc23)CC1 [E-Y40]
IC50 (PRC2 enzyme): 16.1 nM | IC50 (Pfeiffer cells [1]): 5.4 nM | Clearance rate in vivo Clint In Vivo Extpl ([2]; human liver microsomes): 2522 mL/min | Intrinsic clearance rate in vivo Clint In Vitro ([2]; human liver microsomes): 33.0 mL/min/gprot | Liver clearance rate Clint Hep In Vivo Extpl ([2]; human liver microsomes): 941 mL/min | half-life [2, 6]: 1.06 h | bioavailability [2, 7]: 37.3% | Clearance rate in vivo Clint In Vivo Extpl ([3]; rat liver microsomes): 59.6 mL/min | Intrinsic clearance rate in vivo Clint In Vitro ([3]; rat liver microsomes): 133 mL/min/gprot | Liver clearance rate Clint Hep In Vivo Extpl ([3]; rat liver microsomes): 15.0 mL/min | Metabolic bioavailability MF % ([3]; rat liver microsomes): 25.1% | half-life [3, 8]: 0.265 h | Clearance rate in vivo Clint In Vivo Extpl ([4]; mouse liver microsomes): 23.2 mL/min | Intrinsic clearance rate in vivo Clint In Vitro ([4]; mouse liver microsomes): 344 mL/min/gprot | Liver clearance rate Clint Hep In Vivo Extpl ([4]; mouse liver microsomes): 2.66 mL/min | Metabolic bioavailability MF % ([4]; mouse liver microsomes): 11.4% | half-life [4, 9]: 0.102 h

The remaining compounds from weak to strong by IC50 (PRC2 enzyme), led by results:

IC50 (PRC2 enzyme): 350 nM | IC50 (Pfeiffer cells [1]): 107 nM
Structure (SMILES): Cc1ccc(S(=O)(=O)N2CC=C(c3cnc(NCc4ccco4)n4cnnc34)CC2)cc1 [E-Y23]

IC50 (PRC2 enzyme): 23.3 nM | IC50 (Pfeiffer cells [1]): 8.1 nM | IC50 (Pfeiffer cells [5]): 4 nM
Structure (SMILES): CC1(C)CC(c2cnc(NCc3c(F)ccc4c3CCO4)n3cnnc23)=CCO1 [SL-ZYE-119]

IC50 (PRC2 enzyme): 22.5 nM | IC50 (Pfeiffer cells [5]): 10 nM
Structure (SMILES): Fc1ccc2c(c1CNc1ncc(C3=CCOc4ccccc43)c3nncn13)CCO2 [SL-ZYE-28]

IC50 (PRC2 enzyme): 8.3 nM | IC50 (Pfeiffer cells [5]): 6 nM
Structure (SMILES): CC1C=C(c2cnc(NCc3c(F)ccc4c3CCO4)n3cnnc23)CC(C)O1 (stereo not drawn) [SL-ZYE-24]

IC50 (PRC2 enzyme): 4.5 nM | IC50 (Pfeiffer cells [5]): 3.2 nM
Structure (SMILES): O=S1(=O)CC=C(c2cnc(NCc3c(F)ccc4c3CCO4)n3cnnc23)CC1 [SL-ZYE-09]

IC50 (PRC2 enzyme): 3.4 nM | IC50 (Pfeiffer cells [1]): 1.8 nM
Structure (SMILES): C=CC(=O)N1CC=C(c2cnc(NCc3c(F)ccc4c3CCO4)n3cnnc23)CC1 [E-Y45]
